Reference: the NIST ThermoML archive (doi:10.1021/je800930v)

Experiments:
[1] = xn = mol fraction of the nth substance listed; details: 101 kPa, Liquid
[2] = 101 kPa, Liquid

O=C(O)C1CC1 [cyclopropanecarboxylic acid] + CCO
[1]
Details | mass density, 298.15 K [kg/m3] | mass density, 308.15 K [kg/m3] | mass density, 318.15 K [kg/m3] | mass density, 328.15 K [kg/m3] | viscosity, 298.15 K [mPa·s] | viscosity, 308.15 K [mPa·s] | viscosity, 318.15 K [mPa·s] | viscosity, 328.15 K [mPa·s]
x1 = 0.0787 | 820.26 | 811.57 | 802.61 | 793.34 | 1.272 | 1.043 | 0.865 | 0.723
x1 = 0.161 | 853.87 | 844.96 | 835.92 | 826.69 | 1.469 | 1.201 | 0.99 | 0.825
x1 = 0.2475 | 886.51 | 877.38 | 868.1 | 858.68 | 1.711 | 1.388 | 1.136 | 0.947
x1 = 0.3384 | 917.74 | 908.48 | 899.1 | 889.59 | 1.985 | 1.596 | 1.299 | 1.073
x1 = 0.4341 | 947.8 | 938.44 | 928.98 | 919.39 | 2.279 | 1.814 | 1.47 | 1.208
x1 = 0.535 | 976.75 | 967.28 | 957.74 | 948.09 | 2.562 | 2.029 | 1.636 | 1.342
x1 = 0.6415 | 1004.67 | 995.1 | 985.47 | 975.77 | 2.818 | 2.225 | 1.789 | 1.467
x1 = 0.7542 | 1031.56 | 1021.89 | 1012.17 | 1002.41 | 3.035 | 2.391 | 1.895 | 1.557
x1 = 0.8734 | 1057.73 | 1047.94 | 1038.12 | 1028.3 | 3.204 | 2.532 | 2.024 | 1.674
x1 = 1 | 1082.92 | 1072.97 | 1063.04 | 1053.12 | 3.306 | 2.603 | 2.102 | 1.739

O=C(O)C1CC1 [cyclopropanecarboxylic acid] + CCCCO
[1]
Details | mass density, 298.15 K [kg/m3] | mass density, 308.15 K [kg/m3] | mass density, 318.15 K [kg/m3] | mass density, 328.15 K [kg/m3] | mass density, 338.15 K [kg/m3] | viscosity, 298.15 K [mPa·s] | viscosity, 308.15 K [mPa·s] | viscosity, 318.15 K [mPa·s] | viscosity, 328.15 K [mPa·s] | viscosity, 338.15 K [mPa·s]
x1 = 0.1 | 831.84 | 823.84 | 815.72 | 807.43 | 798.92 | 2.672 | 2.064 | 1.615 | 1.289 | 1.031
x1 = 0.2 | 858.24 | 850.01 | 841.64 | 833.15 | 824.46 | 2.782 | 2.145 | 1.689 | 1.339 | 1.081
x1 = 0.3 | 884.97 | 876.51 | 867.95 | 859.26 | 850.39 | 2.936 | 2.26 | 1.779 | 1.416 | 1.145
x1 = 0.4 | 912.03 | 903.36 | 894.6 | 885.74 | 876.73 | 3.091 | 2.374 | 1.863 | 1.488 | 1.207
x1 = 0.5 | 939.3 | 930.44 | 921.51 | 912.47 | 903.33 | 3.217 | 2.475 | 1.944 | 1.556 | 1.266
x1 = 0.6 | 966.97 | 957.92 | 948.81 | 939.61 | 930.34 | 3.319 | 2.558 | 2.016 | 1.62 | 1.324
x1 = 0.6987 | 994.72 | 985.5 | 976.22 | 966.86 | 957.46 | 3.386 | 2.616 | 2.079 | 1.671 | 1.37
x1 = 0.7996 | 1023.6 | 1014.15 | 1004.68 | 995.17 | 985.6 | 3.401 | 2.634 | 2.11 | 1.708 | 1.41
x1 = 0.9 | 1053 | 1043.31 | 1033.63 | 1023.94 | 1014.21 | 3.362 | 2.628 | 2.109 | 1.723 | 1.432
x1 = 1 | 1082.92 | 1072.97 | 1063.04 | 1053.12 | 1043.2 | 3.306 | 2.603 | 2.102 | 1.739 | 1.459

CCO [ethanol] + O=C(O)C1CC1
[1], x2 = 0
Details | mass density [kg/m3] | viscosity [mPa·s]
298.15 K | 785.44 | 1.097
308.15 K | 776.78 | 0.908
318.15 K | 767.94 | 0.756
328.15 K | 758.92 | 0.634

CCCO [propan-1-ol] + O=C(O)C1CC1
[1], x2 = 0
Details | mass density [kg/m3] | viscosity [mPa·s]
298.15 K | 799.6 | 1.955
308.15 K | 791.49 | 1.538
318.15 K | 783.22 | 1.224
328.15 K | 774.73 | 0.986
338.15 K | 765.98 | 0.801

O=C(O)C1CC1 [cyclopropanecarboxylic acid]
[2]
Details | mass density [kg/m3] | viscosity [mPa·s]
298.15 K | 1082.92 | 3.306
308.15 K | 1072.97 | 2.603
318.15 K | 1063.04 | 2.102
328.15 K | 1053.12 | 1.739
338.15 K | 1043.2 | 1.459

CO [methanol]
[2]
Details | mass density [kg/m3] | viscosity [mPa·s]
298.15 K | 787.01 | 0.556
308.15 K | 777.54 | 0.484
318.15 K | 767.98 | 0.424
328.15 K | 758.28 | 0.372

CCCO [propan-1-ol]
[2]
Details | mass density [kg/m3] | viscosity [mPa·s]
298.15 K | 799.6 | 1.955
308.15 K | 791.49 | 1.538
318.15 K | 783.22 | 1.224
328.15 K | 774.73 | 0.986
338.15 K | 765.98 | 0.801

O=C(O)C1CC1 [cyclopropanecarboxylic acid] + CO
[1]
Details | mass density, 298.15 K [kg/m3] | mass density, 308.15 K [kg/m3] | mass density, 318.15 K [kg/m3] | mass density, 328.15 K [kg/m3] | viscosity, 298.15 K [mPa·s] | viscosity, 308.15 K [mPa·s] | viscosity, 318.15 K [mPa·s] | viscosity, 328.15 K [mPa·s]
x1 = 0.1 | 846.5 | 837.02 | 827.45 | 817.74 | 0.773 | 0.651 | 0.572 | 0.499
x1 = 0.2 | 895.02 | 885.53 | 875.84 | 866.23 | 1.052 | 0.886 | 0.753 | 0.645
x1 = 0.3 | 935.16 | 925.62 | 916 | 906.25 | 1.392 | 1.151 | 0.965 | 0.816
x1 = 0.3999 | 968.42 | 958.83 | 949.18 | 939.42 | 1.778 | 1.451 | 1.199 | 1
x1 = 0.4994 | 996.21 | 986.56 | 976.86 | 967.07 | 2.189 | 1.765 | 1.44 | 1.191
x1 = 0.5989 | 1019.49 | 1009.79 | 1000.06 | 990.24 | 2.557 | 2.029 | 1.641 | 1.349
x1 = 0.7001 | 1039.41 | 1029.65 | 1019.87 | 1010.04 | 2.887 | 2.227 | 1.825 | 1.494
x1 = 0.8001 | 1056.17 | 1046.35 | 1036.53 | 1026.65 | 3.139 | 2.449 | 1.963 | 1.604
x1 = 0.9 | 1070.57 | 1060.68 | 1050.81 | 1040.92 | 3.298 | 2.553 | 2.047 | 1.678
x1 = 1 | 1082.92 | 1072.97 | 1063.04 | 1053.12 | 3.306 | 2.603 | 2.102 | 1.739

CCCCO [butan-1-ol] + O=C(O)C1CC1
[1], x2 = 0
Details | mass density [kg/m3] | viscosity [mPa·s]
298.15 K | 805.8 | 2.588
308.15 K | 798.08 | 1.991
318.15 K | 790.22 | 1.555
328.15 K | 782.17 | 1.228
338.15 K | 773.88 | 0.981

CCCCO [butan-1-ol]
[2]
Details | mass density [kg/m3] | viscosity [mPa·s]
298.15 K | 805.8 | 2.588
308.15 K | 798.08 | 1.991
318.15 K | 790.22 | 1.555
328.15 K | 782.17 | 1.228
338.15 K | 773.88 | 0.981

CCO [ethanol]
[2]
Details | mass density [kg/m3] | viscosity [mPa·s]
298.15 K | 785.44 | 1.097
308.15 K | 776.78 | 0.908
318.15 K | 767.94 | 0.756
328.15 K | 758.92 | 0.634

CO [methanol] + O=C(O)C1CC1
[1], x2 = 0
Details | mass density [kg/m3] | viscosity [mPa·s]
298.15 K | 787.01 | 0.556
308.15 K | 777.54 | 0.484
318.15 K | 767.98 | 0.424
328.15 K | 758.28 | 0.372

O=C(O)C1CC1 [cyclopropanecarboxylic acid] + CCCO
[1]
Details | mass density, 298.15 K [kg/m3] | mass density, 308.15 K [kg/m3] | mass density, 318.15 K [kg/m3] | mass density, 328.15 K [kg/m3] | mass density, 338.15 K [kg/m3] | viscosity, 298.15 K [mPa·s] | viscosity, 308.15 K [mPa·s] | viscosity, 318.15 K [mPa·s] | viscosity, 328.15 K [mPa·s] | viscosity, 338.15 K [mPa·s]
x1 = 0.1 | 832.12 | 823.73 | 815.19 | 806.46 | 797.48 | 2.118 | 1.667 | 1.325 | 1.068 | 0.87
x1 = 0.2 | 863.75 | 855.12 | 846.35 | 837.42 | 828.26 | 2.33 | 1.833 | 1.451 | 1.169 | 0.953
x1 = 0.3 | 894.25 | 885.41 | 876.46 | 867.36 | 858.07 | 2.568 | 2.002 | 1.583 | 1.276 | 1.041
x1 = 0.4138 | 927.62 | 918.58 | 909.45 | 900.17 | 890.75 | 2.82 | 2.19 | 1.733 | 1.396 | 1.141
x1 = 0.5001 | 952.13 | 942.95 | 933.7 | 924.34 | 914.85 | 2.988 | 2.317 | 1.834 | 1.481 | 1.211
x1 = 0.6 | 979.77 | 970.45 | 961.07 | 951.61 | 942.03 | 3.14 | 2.437 | 1.929 | 1.56 | 1.282
x1 = 0.7 | 1006.34 | 996.88 | 987.37 | 977.81 | 968.16 | 3.235 | 2.517 | 2.002 | 1.626 | 1.342
x1 = 0.8 | 1032.24 | 1022.8 | – | 1003.51 | 993.78 | 3.299 | 2.574 | 2.06 | 1.678 | 1.392
x1 = 0.9 | 1057.82 | 1048.15 | 1038.38 | 1028.6 | 1018.78 | 3.316 | 2.617 | 2.092 | 1.713 | 1.429
x1 = 1 | 1082.92 | 1072.97 | 1063.04 | 1053.12 | 1043.2 | 3.306 | 2.603 | 2.102 | 1.739 | 1.459
